# Results: ChEMBL document CHEMBL1201862, “PubChem BioAssay data set” (2004)
# Active and inactive are the calls of the source.
# Assays:
# [1] = growth suppression of PTEN-null colon cells, dose response, cell-based, HCT116 PTEN knockout (AID 1047); type: functional;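 also: HCT116 colon tumor cells with PTEN knocked out; cells exposed to compound for 60 hours before readout; potency for loss of cell viability measured by luminescence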
# [2] = growth suppression of beta-catenin-knockout colon cells, dose response, cell-based, HCT116, human colon tumor (AID 1045); type: functional;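 also: HCT116 colon tumor cells with beta catenin knocked out; cells exposed to compound for 60 hours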
# [3] = molecular target: T1, DNA repair protein RAD52 homolog (Homo sapiens, UniProt P43351); type: functional, biochemical
# T1 sequence (P43351 whole entry): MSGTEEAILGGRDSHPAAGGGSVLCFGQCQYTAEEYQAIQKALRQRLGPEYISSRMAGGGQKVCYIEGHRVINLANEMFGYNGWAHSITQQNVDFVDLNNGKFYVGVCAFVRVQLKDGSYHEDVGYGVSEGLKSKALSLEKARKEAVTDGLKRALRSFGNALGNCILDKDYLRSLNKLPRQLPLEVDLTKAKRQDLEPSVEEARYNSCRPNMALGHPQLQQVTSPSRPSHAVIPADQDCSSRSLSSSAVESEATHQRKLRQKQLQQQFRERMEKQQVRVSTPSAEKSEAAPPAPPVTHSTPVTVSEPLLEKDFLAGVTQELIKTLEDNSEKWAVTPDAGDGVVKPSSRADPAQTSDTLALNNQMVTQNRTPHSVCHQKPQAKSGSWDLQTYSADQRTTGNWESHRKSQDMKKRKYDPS
# [4] = molecular target: T2, Polyadenylate-binding protein 1 (Homo sapiens, UniProt P11940); experiment: PABP1 MLLE–PAM2 interaction inhibitors, dose response, miRNA deadenylation inhibitor project, biochemical, fluorescence polarization, Cy5-PAM2 peptide, secondary (AID 602260); type: functional; settings: read-out: IC50_Mean
# [5] = molecular target: T2, Polyadenylate-binding protein 1; experiment: PABP1 MLLE–PAM2 binding inhibitor potency, dose response, biochemical, fluorescence polarization, FITC-PAM2 peptide (AID 602259); type: functional; settings: read-out: IC50_Mean
# [6] = molecular target: T3, Heat shock factor protein 1 (Mus musculus, UniProt P38532); experiment: inhibition of MG132-induced HSE-luciferase signal, confirmation, cell-based, NIH3T3, luminescence, dose retest (AID 2382); type: functional;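 also: NIH3T3 fibroblasts with HSF1-driven luciferase reporter stressed by proteasome inhibitor MG132; luminescence from HSF1-driven luciferase expression after 8 hours of MG132 stress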
# T3 sequence (P38532 whole entry): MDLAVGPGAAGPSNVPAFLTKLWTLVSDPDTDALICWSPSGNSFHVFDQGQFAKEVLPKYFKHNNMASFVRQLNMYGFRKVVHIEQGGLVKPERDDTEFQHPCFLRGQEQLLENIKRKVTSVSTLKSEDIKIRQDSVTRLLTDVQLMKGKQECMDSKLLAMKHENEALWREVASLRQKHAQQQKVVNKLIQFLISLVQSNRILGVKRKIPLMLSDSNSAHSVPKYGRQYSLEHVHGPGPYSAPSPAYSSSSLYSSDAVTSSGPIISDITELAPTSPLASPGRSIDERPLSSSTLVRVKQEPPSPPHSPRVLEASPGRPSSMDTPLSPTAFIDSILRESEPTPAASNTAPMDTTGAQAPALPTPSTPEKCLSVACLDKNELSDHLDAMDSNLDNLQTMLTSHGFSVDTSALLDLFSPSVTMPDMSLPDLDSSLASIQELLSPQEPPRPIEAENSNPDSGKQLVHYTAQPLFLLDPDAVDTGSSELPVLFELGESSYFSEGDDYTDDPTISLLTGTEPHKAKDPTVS
# [7] = LGR2 antagonists, dose response, cell-based, HEK293, CRE-luciferase reporter, cherry pick, set 2 (AID 743343); type: functional;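 also: transfected cells were stimulated with diluted bursicon conditioned medium after compound addition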
# [8] = MC4R antagonists, dose response, counter-screen for LGR2 antagonist project, cell-based, plate reader, cherry pick (AID 743444); type: functional;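 also: transfected HEK 293 cells stimulated with alpha-MSH peptide; potency of inhibitors of the alpha-MSH evoked signal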
# [9] = Luminescence Cell-Based Dose Confirmation HTS to Identify Activators of 5'UTR Stem-Loop Driven Alpha-Synuclein mRNA Translation in H4 Neuroglioblastoma Cells. [Related pubchem assays: 1829 (Project Summary), 1814 (Primary HTS)]; type: functional
# [10] = Luminescence Cell-Based Dose Response HTS to Identify Activators of Luciferase Translation or Activity in H4 […] Cells. [Related pubchem assays: 1829 (Project Summary), 1814 (Primary HTS)]; type: functional
# [11] = test system: H4; experiment: Luminescence Cell-Based Dose Response HTS to Identify Activators of 5'UTR Stem-Loop Driven Prion Protein mRNA Translation in H4 Neuroglioblastoma Cells. [Related pubchem assays: 1829 (Project Summary), 1814 (Primary HTS)]; type: functional; settings: Homo sapiens
# [12] = molecular target: Large T antigen (Simian virus 40, UniProt P03070); type: functional, Betapolyomavirus macacae;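 also: Confirmatory-stage PubChem screen for compounds that inhibit SV40 T antigen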
# [13] = molecular target: T4, Corticotropin-releasing factor receptor 2/Corticotropin-releasing factor-binding protein (Homo sapiens, UniProt P24387+Q13324); experiment: Dose Response confirmation of uHTS hits for small molecule antagonists of the CRF-binding protein and CRF-R2 receptor complex.; type: functional; settings: read-out: IC50_Mean
# T4 sequence (Q13324 whole entry): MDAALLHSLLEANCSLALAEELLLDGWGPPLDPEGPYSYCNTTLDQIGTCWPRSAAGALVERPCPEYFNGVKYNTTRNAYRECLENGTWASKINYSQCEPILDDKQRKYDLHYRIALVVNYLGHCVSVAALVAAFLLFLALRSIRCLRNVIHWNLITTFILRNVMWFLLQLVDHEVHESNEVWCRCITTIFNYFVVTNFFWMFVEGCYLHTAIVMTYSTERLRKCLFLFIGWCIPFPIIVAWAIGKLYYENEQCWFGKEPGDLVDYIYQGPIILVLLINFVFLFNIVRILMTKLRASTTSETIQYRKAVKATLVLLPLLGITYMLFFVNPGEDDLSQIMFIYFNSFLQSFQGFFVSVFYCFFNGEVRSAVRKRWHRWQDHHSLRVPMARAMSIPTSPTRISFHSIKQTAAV
# T4 sequence (P24387 whole entry): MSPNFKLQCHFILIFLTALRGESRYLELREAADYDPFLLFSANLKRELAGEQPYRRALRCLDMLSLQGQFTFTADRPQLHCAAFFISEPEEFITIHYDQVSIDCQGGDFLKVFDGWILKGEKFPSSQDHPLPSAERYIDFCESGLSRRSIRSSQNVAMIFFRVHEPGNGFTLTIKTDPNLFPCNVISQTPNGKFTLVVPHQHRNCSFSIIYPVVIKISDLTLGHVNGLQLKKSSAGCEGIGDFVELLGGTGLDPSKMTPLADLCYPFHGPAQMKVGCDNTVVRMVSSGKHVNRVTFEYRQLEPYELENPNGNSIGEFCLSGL
# [14] = molecular target: T4, Corticotropin-releasing factor receptor 2/Corticotropin-releasing factor-binding protein; experiment: activators of CRF receptor 2 with binding protein – uHTS hits, confirmation (AID 602473); type: functional; settings: read-out: EC50_Mean
# [15] = molecular target: FAD-linked sulfhydryl oxidase ALR (Homo sapiens, UniProt P55789); experiment: inhibitors of human ALR sulfhydryl oxidase, dose response, biochemical, H2O2 detection, luminescence, cherry-pick (AID 493248)
# [16] = molecular target: Glyceraldehyde-3-phosphate dehydrogenase (Homo sapiens, UniProt P04406)
# Sequence of Glyceraldehyde-3-phosphate dehydrogenase (P04406 whole entry): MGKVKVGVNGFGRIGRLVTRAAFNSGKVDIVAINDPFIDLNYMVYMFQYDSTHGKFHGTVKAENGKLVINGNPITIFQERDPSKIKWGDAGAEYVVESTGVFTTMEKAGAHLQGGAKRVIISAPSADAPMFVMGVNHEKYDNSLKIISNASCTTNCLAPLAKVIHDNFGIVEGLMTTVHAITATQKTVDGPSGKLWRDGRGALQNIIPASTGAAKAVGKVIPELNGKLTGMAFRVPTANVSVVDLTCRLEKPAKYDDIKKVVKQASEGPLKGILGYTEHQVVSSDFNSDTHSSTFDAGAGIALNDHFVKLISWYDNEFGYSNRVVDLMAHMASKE
# T2 sequence (P11940 whole entry): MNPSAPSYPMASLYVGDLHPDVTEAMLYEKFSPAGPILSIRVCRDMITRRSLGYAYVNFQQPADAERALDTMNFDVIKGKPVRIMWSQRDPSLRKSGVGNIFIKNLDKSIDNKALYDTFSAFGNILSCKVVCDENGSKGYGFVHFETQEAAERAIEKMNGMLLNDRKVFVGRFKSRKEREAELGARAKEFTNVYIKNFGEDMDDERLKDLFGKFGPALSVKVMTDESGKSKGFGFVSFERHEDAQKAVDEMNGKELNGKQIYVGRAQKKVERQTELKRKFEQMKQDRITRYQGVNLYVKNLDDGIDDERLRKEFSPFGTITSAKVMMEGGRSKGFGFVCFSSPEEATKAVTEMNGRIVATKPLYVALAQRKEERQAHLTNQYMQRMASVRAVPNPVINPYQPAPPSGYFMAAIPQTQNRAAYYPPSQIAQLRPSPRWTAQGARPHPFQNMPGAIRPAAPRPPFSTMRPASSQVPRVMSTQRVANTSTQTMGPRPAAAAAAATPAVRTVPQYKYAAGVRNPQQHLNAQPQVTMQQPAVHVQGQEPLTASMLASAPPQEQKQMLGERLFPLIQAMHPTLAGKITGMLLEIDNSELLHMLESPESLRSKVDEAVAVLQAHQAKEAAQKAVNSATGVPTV
# Sequence of Large T antigen (P03070 whole entry): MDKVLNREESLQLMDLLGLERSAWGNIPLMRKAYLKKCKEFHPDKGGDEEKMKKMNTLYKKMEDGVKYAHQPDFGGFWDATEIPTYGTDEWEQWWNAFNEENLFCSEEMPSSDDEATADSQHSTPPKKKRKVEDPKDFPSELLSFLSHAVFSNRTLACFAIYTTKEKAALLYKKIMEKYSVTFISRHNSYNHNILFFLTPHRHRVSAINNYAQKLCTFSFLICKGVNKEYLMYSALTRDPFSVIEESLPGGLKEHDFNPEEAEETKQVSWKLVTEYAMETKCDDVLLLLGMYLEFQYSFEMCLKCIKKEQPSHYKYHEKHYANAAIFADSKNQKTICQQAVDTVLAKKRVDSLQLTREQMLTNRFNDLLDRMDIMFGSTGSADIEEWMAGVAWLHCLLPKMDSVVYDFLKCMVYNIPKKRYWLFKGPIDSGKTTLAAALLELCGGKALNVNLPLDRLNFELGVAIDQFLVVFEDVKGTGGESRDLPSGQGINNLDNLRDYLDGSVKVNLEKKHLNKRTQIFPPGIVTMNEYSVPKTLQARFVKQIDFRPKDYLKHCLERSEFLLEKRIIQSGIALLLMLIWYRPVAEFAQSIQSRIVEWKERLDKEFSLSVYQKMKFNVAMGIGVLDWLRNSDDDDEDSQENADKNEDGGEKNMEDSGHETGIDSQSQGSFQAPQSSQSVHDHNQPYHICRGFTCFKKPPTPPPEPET
# Sequence of FAD-linked sulfhydryl oxidase ALR (P55789 whole entry): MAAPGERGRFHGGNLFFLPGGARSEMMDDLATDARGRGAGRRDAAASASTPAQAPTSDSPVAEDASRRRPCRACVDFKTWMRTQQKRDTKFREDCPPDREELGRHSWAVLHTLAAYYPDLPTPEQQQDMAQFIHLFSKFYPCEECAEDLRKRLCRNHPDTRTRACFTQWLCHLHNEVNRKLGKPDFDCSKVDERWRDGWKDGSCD
smiles,measurement,setting,value
CN(C)CCN(C)Cc1ccccc1Sc1cccc2ccccc12,EC50,[1],12.8 µM (active)
same,EC50,[2],10.6 µM (active)
same,AC50,[3],11.2 µM (active)
COc1ccc2c(c1)CCN1C2CCN2C(=O)CCC21 (stereo unspecified),IC50,[4],> 66 µM (inactive)
same,IC50,[5],> 66 µM (inactive)
CC(C)(C)c1ccc(C(=O)NCCOc2ccccc2F)cc1,EC50,[6],< 0.16 µM (active)
same,AC50,[7],5.41 µM (active)
same,AC50,[8],4.25 µM (active)
C[C@@H]1[C@@H](Sc2ccccc2)CC(=O)O[C@@H]1c1ccc(-c2ccccc2)cc1,EC50,[9],> 120 µM (not active)
same,EC50,[10],> 120 µM (not active)
same,EC50,[11],> 120 µM (not active)
same,IC50,[4],> 66 µM (inactive)
same,IC50,[5],> 66 µM (inactive)
N#Cc1cc2cc3c(cc2nc1NCCNC(=S)NCCCN1CCOCC1)OCO3,AC50,[3],14.1 µM (active)
FC(F)(F)c1cccc(NC(S)=Nc2cccc(N=C(S)Nc3cccc(C(F)(F)F)c3)n2)c1,IC50,[4],> 66 µM (inactive)
same,IC50,[5],> 66 µM (inactive)
CN(C)c1ccc(NC(=O)COC(=O)Cn2nnc3ccccc32)cc1,IC50,[12],6.63 µM (active)
same,IC50,[13],> 47.1 µM (inactive)
same,EC50,[14],> 53 µM (inactive)
O=C(c1cc(-c2ccc(Cl)cc2Cl)on1)N1CCCC1,AC50,[7],5.36 µM (active)
same,AC50,[8],5.47 µM (active)
COc1ccc(N)cc1NC(=O)CN1CCCC1,AC50,[15],7.58 µM (active)
same,AC50,[3],9.95 µM (active)
COc1ccc(N=C(S)NC23CN4CN(CN(C4)C2)C3)c(OC)c1,AC50,[3],16.3 µM (active)
COc1cccc(/C=N/c2ccc(N3CCOCC3)cc2)c1O,IC50,[12],4.14 µM (active)
O=C(c1cc(-c2ccc(Cl)cc2Cl)n[nH]1)N(CCO)CCO,IC50,[16],> 10 µM (inconclusive)
